Data reported in patent US20220380383A1, “NEUROPROTECTIVE PDI MODULATING SMALL MOLECULES AND METHODS OF USE THEREOF” (THE TRUSTEES OF COLUMBIA UNIVERSITY IN THE CITY OF NEW YORK, priority 2018, published 2022).

How the values were obtained:
[1] = target: T1, human catalytic PDI A1 a domain (PDIa) (Homo sapiens, UniProt P07237); assay: Isothermal titration calorimetry (ITC) binding to PDIa
T1 construct: made in house; host or cells: Escherichia coli BL21-Gold (DE3)

five isoforms of CYP450 = assay: CYP450 inhibition, five isoforms; type: in vitro ADME
[2] = test system: neuronal redox state (roGFP2); assay: roGFP2 redox reporter in primary neurons; type: cell-based
Protocol: […]. Rat coronal brain slice explants co-transfected with YFP and Tau-4R (FIG. 16B) or striatal brain slice explants co-transfected with YFP and mHTT (FIG. 16C) were treated with LC-43 or DMSO carrier-only for 3 days. The respective regions of each brain slice were then scored for numbers of healthy (FIG. 16B) pyramidal or (FIG. 16C) medium spiny neurons remaining. Data are normalized to the negative control condition set to 100% and plotted as means±SEM. In FIG. 16D, The confocal images shown are maximal z-stacks of 0.5 μm steps (˜20 images per stack). (Bottom) Reduction of neuronal redox state by LC-43. Left, Primary neurons were co-transfected with mCherry (to positively identify transfected neurons) and the genetically encoded ratiometric redox reporter roGFP2. Four days later, the culture medium was changed into an identical formulation except without conventional antioxidant additives. 24 hours after this medium change, LOC-43 or DMSO carrier-only were added to the neurons and images were taken after 30 minutes or 24 hours of treatment as indicated. Imaging was done using a Leica SP5 inverted confocal microscope through a 63× water-immersion objective. Images of 40 individual neurons for each condition were collected at 405 and 488 nm and analysis of the 405/488 ratio for each image pair was done using CellProfiler (Broad Institute).
As mentioned, we synthesized several fluorine-containing analogs of LOC14 (analogs LC-43 and LC-40). Addition of fluorine was the only modification that was tolerated at the ortho position without a complete loss of activity in cells and in targeting PDI in vitro (Table 9). […] Additionally, we evaluated LC-43 using a genetically encoded redox reporter transfected into neurons. […] In contrast, treatment with the non-selective reducing agent dithiothreitol (DTT) produces an immediate and dramatic reduction in the roGFP2 fluorescence ratio that leads rapidly to cell degeneration and death (FIG. 16D). […]

Adenosine A1 = Adenosine A1 (Homo sapiens, UniProt P30542); assay: Off-target panel, Adenosine A1; type: binding; conditions: Conc. 3 μM
Sequence of Adenosine A1 (P30542 whole entry): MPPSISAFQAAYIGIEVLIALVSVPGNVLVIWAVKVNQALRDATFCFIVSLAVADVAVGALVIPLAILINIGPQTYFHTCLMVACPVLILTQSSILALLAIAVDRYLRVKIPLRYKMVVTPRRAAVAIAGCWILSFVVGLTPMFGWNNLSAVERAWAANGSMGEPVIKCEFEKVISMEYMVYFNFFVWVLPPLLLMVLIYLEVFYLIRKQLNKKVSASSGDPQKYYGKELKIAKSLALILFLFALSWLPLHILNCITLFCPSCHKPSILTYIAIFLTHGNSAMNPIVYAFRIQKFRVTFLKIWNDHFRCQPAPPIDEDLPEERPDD

Adrenergic α1A = Adrenergic α1A (Rattus norvegicus, UniProt P43140); assay: Off-target panel, Adrenergic α1A; type: binding; conditions: Conc. 3 μM
Sequence of Adrenergic α1A (P43140 whole entry): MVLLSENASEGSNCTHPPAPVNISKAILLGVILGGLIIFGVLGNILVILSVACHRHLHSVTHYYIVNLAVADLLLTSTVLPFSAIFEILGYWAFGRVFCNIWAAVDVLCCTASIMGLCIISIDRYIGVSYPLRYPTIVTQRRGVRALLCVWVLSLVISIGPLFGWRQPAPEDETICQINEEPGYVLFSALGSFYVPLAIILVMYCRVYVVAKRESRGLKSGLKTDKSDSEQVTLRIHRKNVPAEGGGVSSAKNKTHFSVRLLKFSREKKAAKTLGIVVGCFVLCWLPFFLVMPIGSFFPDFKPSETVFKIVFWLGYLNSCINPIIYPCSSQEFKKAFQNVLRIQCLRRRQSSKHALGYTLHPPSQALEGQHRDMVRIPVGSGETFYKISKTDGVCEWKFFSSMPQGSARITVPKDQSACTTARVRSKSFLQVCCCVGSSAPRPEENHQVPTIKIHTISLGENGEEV

Adrenergic α1B = Adrenergic α1B (Rattus norvegicus, UniProt P15823); assay: Off-target panel, Adrenergic α1B; type: binding; conditions: Conc. 3 μM
Sequence of Adrenergic α1B (P15823 whole entry): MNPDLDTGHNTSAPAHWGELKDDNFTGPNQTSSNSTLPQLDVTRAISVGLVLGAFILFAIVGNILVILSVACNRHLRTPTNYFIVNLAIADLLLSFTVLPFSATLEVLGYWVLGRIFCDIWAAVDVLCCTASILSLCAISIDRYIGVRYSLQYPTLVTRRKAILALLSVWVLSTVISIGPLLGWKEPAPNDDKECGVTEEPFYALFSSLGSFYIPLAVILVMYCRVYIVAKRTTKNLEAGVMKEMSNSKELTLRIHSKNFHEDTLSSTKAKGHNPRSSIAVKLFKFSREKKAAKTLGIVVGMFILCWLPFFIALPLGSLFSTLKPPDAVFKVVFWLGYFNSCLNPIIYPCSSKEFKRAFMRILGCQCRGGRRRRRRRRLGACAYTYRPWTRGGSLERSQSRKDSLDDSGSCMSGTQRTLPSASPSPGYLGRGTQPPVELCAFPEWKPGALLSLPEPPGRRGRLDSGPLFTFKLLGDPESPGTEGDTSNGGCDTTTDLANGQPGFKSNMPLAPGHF

Adrenergic α2A = Adrenergic α2A (Homo sapiens, UniProt P08913); assay: Off-target panel, Adrenergic α2A; type: binding; conditions: Conc. 3 μM
Adrenergic β1 = Adrenergic β1 (Homo sapiens, UniProt P08588); assay: Off-target panel, Adrenergic β1; type: binding; conditions: Conc. 3 μM
Sequence of Adrenergic β1 (P08588 whole entry): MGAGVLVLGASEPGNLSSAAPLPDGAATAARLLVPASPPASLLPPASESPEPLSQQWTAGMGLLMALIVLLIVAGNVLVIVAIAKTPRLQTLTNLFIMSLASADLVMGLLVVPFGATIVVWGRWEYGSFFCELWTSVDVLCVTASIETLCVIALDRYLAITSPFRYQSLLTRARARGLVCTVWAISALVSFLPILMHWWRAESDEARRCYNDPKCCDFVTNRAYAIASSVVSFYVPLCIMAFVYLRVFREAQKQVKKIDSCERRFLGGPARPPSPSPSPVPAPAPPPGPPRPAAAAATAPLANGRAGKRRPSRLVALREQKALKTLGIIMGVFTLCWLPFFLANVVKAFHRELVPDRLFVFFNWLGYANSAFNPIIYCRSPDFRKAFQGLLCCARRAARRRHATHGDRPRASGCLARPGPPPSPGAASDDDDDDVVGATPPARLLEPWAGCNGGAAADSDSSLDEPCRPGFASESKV

Dopamine D1 = Dopamine D1 (Homo sapiens, UniProt P21728); assay: Off-target panel, Dopamine D1; type: binding; conditions: Conc. 3 μM
Histamine H1 = Histamine H1 (Homo sapiens, UniProt P35367); assay: Off-target panel, Histamine H1; type: binding; conditions: Conc. 3 μM
Sequence of Histamine H1 (P35367 whole entry): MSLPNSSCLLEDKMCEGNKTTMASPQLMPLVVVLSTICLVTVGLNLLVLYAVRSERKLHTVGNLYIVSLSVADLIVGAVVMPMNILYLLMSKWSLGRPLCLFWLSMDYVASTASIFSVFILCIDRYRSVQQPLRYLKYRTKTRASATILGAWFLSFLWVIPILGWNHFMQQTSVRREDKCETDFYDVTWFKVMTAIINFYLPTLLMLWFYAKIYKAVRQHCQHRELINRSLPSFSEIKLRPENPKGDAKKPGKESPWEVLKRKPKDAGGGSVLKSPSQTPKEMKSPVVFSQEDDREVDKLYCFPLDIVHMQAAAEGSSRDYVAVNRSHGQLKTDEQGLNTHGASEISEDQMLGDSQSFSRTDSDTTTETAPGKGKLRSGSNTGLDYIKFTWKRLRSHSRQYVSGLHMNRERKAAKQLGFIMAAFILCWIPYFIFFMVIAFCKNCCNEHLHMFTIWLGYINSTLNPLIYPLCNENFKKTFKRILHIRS

GR = target: T2, GR (Homo sapiens, UniProt P04150); assay: Safety47 panel nuclear hormone receptor GR; type: cell-based; conditions: 3 μM
T2 construct: CEREP (CRO panel)
T2 sequence (P04150 whole entry): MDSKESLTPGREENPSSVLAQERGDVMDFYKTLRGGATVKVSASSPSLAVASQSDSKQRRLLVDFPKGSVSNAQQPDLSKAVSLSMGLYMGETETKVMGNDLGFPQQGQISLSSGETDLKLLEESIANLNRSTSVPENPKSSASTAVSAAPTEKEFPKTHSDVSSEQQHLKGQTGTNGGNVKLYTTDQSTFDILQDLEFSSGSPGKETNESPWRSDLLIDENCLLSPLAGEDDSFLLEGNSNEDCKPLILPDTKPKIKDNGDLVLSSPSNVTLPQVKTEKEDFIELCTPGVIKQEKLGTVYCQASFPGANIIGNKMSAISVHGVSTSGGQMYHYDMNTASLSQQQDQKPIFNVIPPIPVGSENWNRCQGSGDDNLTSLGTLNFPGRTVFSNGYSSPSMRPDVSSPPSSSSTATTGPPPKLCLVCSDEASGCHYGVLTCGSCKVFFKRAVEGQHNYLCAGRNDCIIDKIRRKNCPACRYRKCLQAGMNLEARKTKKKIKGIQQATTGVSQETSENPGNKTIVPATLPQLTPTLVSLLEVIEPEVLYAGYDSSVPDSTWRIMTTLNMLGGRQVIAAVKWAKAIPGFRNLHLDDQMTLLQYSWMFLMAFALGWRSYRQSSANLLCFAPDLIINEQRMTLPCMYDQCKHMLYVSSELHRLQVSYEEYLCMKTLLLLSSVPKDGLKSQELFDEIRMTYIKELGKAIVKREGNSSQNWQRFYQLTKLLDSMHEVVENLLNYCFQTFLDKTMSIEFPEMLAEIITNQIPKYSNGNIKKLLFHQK
Text: (§1) LOC14 was also submitted for testing in CEREP's Safety47 panel. CEREP is a CRO specializing in preclinical research, discovery and development of new pharmaceutical drugs.

SERT = target: T3, SERT (Homo sapiens, UniProt P31645); assay: Safety47 panel transporter SERT; type: cell-based; conditions: Blocker mode; 3 μM
T3 construct: CEREP (CRO panel)
T3 sequence (P31645 whole entry): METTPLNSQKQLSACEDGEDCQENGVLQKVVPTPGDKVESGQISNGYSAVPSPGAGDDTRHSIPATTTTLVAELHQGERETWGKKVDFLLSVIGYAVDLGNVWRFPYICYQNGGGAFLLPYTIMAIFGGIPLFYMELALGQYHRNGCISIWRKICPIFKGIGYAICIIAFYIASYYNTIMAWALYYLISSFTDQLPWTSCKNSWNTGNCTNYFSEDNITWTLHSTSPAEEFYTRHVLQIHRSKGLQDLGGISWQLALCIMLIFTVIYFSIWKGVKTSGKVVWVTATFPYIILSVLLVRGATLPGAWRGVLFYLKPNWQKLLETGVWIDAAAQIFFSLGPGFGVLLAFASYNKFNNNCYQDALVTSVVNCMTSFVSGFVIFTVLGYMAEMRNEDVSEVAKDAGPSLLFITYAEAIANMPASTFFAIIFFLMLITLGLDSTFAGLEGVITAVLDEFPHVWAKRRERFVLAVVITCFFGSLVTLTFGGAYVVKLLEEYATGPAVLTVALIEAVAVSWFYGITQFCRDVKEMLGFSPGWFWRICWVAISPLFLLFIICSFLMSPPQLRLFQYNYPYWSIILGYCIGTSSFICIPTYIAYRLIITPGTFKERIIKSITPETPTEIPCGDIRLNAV
Text: as §1

HTR3A = target: T4, HTR3A (Homo sapiens, UniProt P46098); assay: Safety47 panel ion channel HTR3A; type: cell-based; conditions: 3 μM
T4 construct: CEREP (CRO panel)
T4 sequence (P46098 24-478): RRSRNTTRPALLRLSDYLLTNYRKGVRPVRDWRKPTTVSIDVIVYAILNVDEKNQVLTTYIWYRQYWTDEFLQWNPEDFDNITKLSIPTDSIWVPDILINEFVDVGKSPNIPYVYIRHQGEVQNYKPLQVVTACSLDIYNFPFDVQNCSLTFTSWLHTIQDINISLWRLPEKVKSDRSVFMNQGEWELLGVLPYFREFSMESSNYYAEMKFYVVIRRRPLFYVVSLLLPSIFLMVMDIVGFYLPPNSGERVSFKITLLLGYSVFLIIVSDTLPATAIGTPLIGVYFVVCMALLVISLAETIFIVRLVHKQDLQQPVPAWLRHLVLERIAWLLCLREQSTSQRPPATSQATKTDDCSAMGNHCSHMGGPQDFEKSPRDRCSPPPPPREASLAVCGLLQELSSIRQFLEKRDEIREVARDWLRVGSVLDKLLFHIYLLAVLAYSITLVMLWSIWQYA
Text: as §1

KvLQT1/minK = target: T5, KvLQT1/minK (Homo sapiens, UniProt P51787); assay: Safety47 panel ion channel KvLQT1/minK; type: cell-based; conditions: 3 μM
T5 construct: CEREP (CRO panel)
Text: as §1

COX1 = target: T6, COX1 (Homo sapiens, UniProt P23219); assay: Safety47 panel non-kinase enzyme COX1; type: biochemical; conditions: Inhibitor mode; 3 μM
T6 construct: CEREP (CRO panel)
Text: as §1

MAOA = target: T7, MAOA (Homo sapiens, UniProt P21397); assay: Safety47 panel non-kinase enzyme MAOA; type: biochemical; conditions: Inhibitor mode; 3 μM
T7 construct: CEREP (CRO panel)
Text: as §1

INSR = target: T8, INSR (Homo sapiens, UniProt P06213); assay: Safety47 panel kinase INSR; type: biochemical; conditions: Inhibitor mode; 3 μM
T8 construct: CEREP (CRO panel)
Text: as §1

LCK = target: T9, LCK (Homo sapiens, UniProt P06239); assay: Safety47 panel kinase LCK; type: biochemical; conditions: Inhibitor mode; 3 μM
T9 construct: CEREP (CRO, Safety47 panel)
T9 sequence (P06239 whole entry): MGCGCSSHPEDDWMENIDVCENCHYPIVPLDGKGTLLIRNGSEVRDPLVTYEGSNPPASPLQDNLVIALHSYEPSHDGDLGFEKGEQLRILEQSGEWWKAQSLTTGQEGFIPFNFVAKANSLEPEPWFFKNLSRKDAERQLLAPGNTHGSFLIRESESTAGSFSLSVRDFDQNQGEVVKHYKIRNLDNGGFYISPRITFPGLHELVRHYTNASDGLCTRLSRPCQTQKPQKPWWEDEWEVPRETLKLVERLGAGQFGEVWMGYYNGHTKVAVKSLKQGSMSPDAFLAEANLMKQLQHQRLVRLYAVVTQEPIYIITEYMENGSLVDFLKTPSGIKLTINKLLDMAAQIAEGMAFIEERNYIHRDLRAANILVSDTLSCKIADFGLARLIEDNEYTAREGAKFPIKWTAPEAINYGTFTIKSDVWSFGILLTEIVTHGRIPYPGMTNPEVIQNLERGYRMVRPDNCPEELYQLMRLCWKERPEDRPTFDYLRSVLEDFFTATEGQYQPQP
Text: as §1

[3] = cited from earlier work

T1 sequence (P07237 18-134): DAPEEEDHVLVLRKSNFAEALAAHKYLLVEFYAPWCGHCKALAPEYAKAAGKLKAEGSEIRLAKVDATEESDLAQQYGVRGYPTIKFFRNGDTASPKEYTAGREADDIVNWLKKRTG

## O=C(C1CC1)N1CCN(Cn2sc3c(F)cccc3c2=O)CC1 [LC-43]
[1]
  binding to PDI by ITC: showed no binding to the protein by ITC
[1]; N/A = not active
  ITC KD: KD = N/A irreversible or not active
Five isoforms of CYP450
  inhibition of the five isoforms of CYP450: does not show any inhibition
[2]; 30 min treatment
  neuronal redox state (roGFP2): no effect
[2]; 24 h treatment, 10 μM
  neuronal redox state (roGFP2): measurable and significant reduction in neuronal redox state

## O=C(C1CC1)N1CCN(Cn2sc3ccccc3c2=O)CC1 [LOC14]
Adenosine A1
  inhibition at 3 µM: 8%
Adrenergic α1A
  inhibition at 3 µM: -14%
Adrenergic α1B
  inhibition at 3 µM: 2%
Adrenergic α2A
  inhibition at 3 µM: 7%
Adrenergic β1
  inhibition at 3 µM: 7%
Dopamine D1
  inhibition at 3 µM: 34%
Histamine H1
  inhibition at 3 µM: 27%
GR; Agonist mode
  Average: 0.0
GR; Antagonist mode
  Average: 0.1
SERT
  Average: 5.0
HTR3A; Blocker mode
  Average: 0.0
HTR3A; Opener mode
  Average: 2.5
KvLQT1/minK; Blocker mode
  Average: 0.0
KvLQT1/minK; Opener mode
  Average: 9.8
COX1
  Average: 1.4
MAOA
  Average: 9.9
INSR
  Average: 22.7
LCK
  Average: 16.1
[3]; in mice
  tolerated dose: 20 mg/kg
[3]; mouse, in vivo, po
  oral bioavailability: orally bioavailable
[3]; mouse, in vivo
  blood-brain-barrier penetration: blood-brain-barrier penetrant
[3]; via oral gavage
  half-life in the brain: 2.2 h
